Laboratory results reported in patent US20250114371A1, “BIOMARKER AND PATIENT SELECTION IN TREATMENT FOR MYELOFIBROSIS” (GlaxoSmithKline LLC, priority 2021, published 2025).
Read-outs that look alike come from different tables or passages of the source.

Legend:
[1] = tested on: transfusion-dependent myelofibrosis patients; settings: Oh et al. 2020, cited from earlier work
[2] = tested on: patients with myelofibrosis naïve to treatment with a JAK inhibitor; test: SIMPLIFY-1 Phase 3 trial, MMB versus RUX, 24 weeks randomized treatment; assay type: in vivo, human; settings: for Response Ratio (MMB/Control): TI response at week 24, MMB/RUX; for 3-year survival: patients randomized to MMB; for Week 24 TI response rate: patients with baseline anemia; for mean ferritin change at W24 from baseline: serum ferritin, irrespective of baseline ferritin
Method: In the SIMPLIFY-1 trial (NCT01969838; GS-US-352-0101), the efficacy and safety of MMB versus ruxolitinib (RUX) was studied in patients with myelofibrosis who were naïve to treatment with a JAK inhibitor. Patients (N=432) with high risk or intermediate-2 risk or symptomatic intermediate-1 risk myelofibrosis received 24 weeks of treatment with 200 mg MMB once daily or 20 mg RUX twice a day (or per label), after which all patients could receive open-label momelotinib. […] The primary endpoint was a reduction by at least 35% in the spleen volume at 24 weeks compared with baseline.
(§1) The relationship between W24 response and overall survival (OS) was explored in patients randomized to MMB in the SIMPLFY-1 (S1) and SIMPLIFY-2 (S2) trials.
(§2) Responders were defined as follows: • W24 TI response (TI-R): no RBC transfusion within ?12 weeks immediately prior to W24, with Hgb≥8 g/dL • W24 spleen response: ≥35% spleen volume reduction vs baseline (BL) • W24 symptom response: ≥50% reduction in MFSAF total symptom score vs BL
(§3) Survival from baseline was estimated using K-M analysis with descriptive log-rank tests for comparison applied (all p values are descriptive). Hazard ratios were computed using proportional hazard regression. To adjust for the time to response bias, overall survival from W24 was also compared. As patients randomized to the control arm in both studies and crossed over to open label MMB after 24 weeks of randomized treatment, a valid comparison of overall survival with patients randomized to RUX or BAT/RUX vs MMB was not possible, therefore, only the MMB arm was analyzed.
(§4) Based on the findings from the Phase 2 translational biology study we retrospectively analyzed the relationship between serum ferritin, hepcidin and C-reactive protein (CRP) and the W24 TI response rates for patients randomized to MMB and RUX in the S1 study using univariate analyses and multiple logistic regression models. These findings were then independently confirmed in the previously RUX treated patients in S2.

[3] = tested on: patients with myelofibrosis naïve to treatment with a JAK inhibitor; settings: Mesa et al., cited from earlier work
[4] = tested on: myelofibrosis patients with low platelet counts; test: Re-analysis of the data from the SIMPLIFY-1 and SIMPLIFY-2 trials by platelet count; assay type: in vivo, human; settings: patients whose platelet counts are 150×109 per liter or below
[5] = tested on: anemic or thrombocytopenic subjects with myelofibrosis previously treated with ruxolitinib; settings: Harrison et al., cited from earlier work
[6] = tested on: anemic or thrombocytopenic subjects with myelofibrosis previously treated with ruxolitinib; test: SIMPLIFY-2 Phase 3 trial, MMB versus best available therapy (BAT); assay type: in vivo, human; settings: for Response Ratio (MMB/Control): TI response at week 24, MMB/BAT
Source text: In the SIMPLIFY-2 trial (NCT02101268; GS-US-352-1214), the efficacy and safety of MMB versus best available treatment (BAT) was studied in anemic or thrombocytopenic subjects with myelofibrosis who were previously treated with ruxolitinib (RUX). There was no lower limit for the required baseline platelet count. […] The primary endpoint was a reduction by at least 35% in the spleen volume at 24 weeks compared with baseline.
as §1, §2, §3, §4

## Cl.N#CCNC(=O)c1ccc(-c2ccnc(Nc3ccc(N4CCOCC4)cc3)n2)cc1 [MMB, N-(cyanomethyl)-4-(2-(4-morpholinophenylamino)pyrimidin-4-yl)benzamide]
[1]
  hepcidin: acutely and chronically suppresses elevated levels of hepcidin
[1]; listed as momelotinib
  hepcidin: inhibited
[1]; transfusion-dependent myelofibrosis patients
  transfusion dependency: reversed or reduced
[2]; MMB W24 spleen responders vs nonresponders
  overall survival hazard ratio (HR): 0.59
[2]; MMB W24 symptom (TSS) responders vs nonresponders
  overall survival hazard ratio (HR): 0.66
[2]; MMB patients with anemia at baseline, W24 TI-R vs nonresponders
  overall survival hazard ratio (HR): 0.32
[2]; MMB vs RUX, irrespective of baseline anemia, platelet count or transfusion status (FIGS. 1-3)
  W24 TI-R rate: higher in patients randomized to MMB vs RUX
[2]; baseline ferritin <90 ng/mL
  Response Ratio (MMB/Control): 1.0843
[2]; baseline ferritin ≥90 ng/mL
  Response Ratio (MMB/Control): 1.7538
[2]; all patients randomized to MMB, W24 TI responders vs TI nonresponders
  overall survival hazard ratio (HR): 0.30
[2]; compared to RUX (FIGS. 12 and 13)
  stabilizing ferritin over time: more effective at stabilizing ferritin over time when compared to RUX
[2]; each ferritin cohort (FIG. 14)
  W24 TI-R by baseline ferritin cohort: superior to RUX for each ferritin cohort
[2]; ferritin levels exceed 650 ng/mL (FIG. 14)
  W24 TI-R by baseline ferritin cohort: nominally better than RUX
[2]; TI nonresponders at W24
  3-year survival: 50%
[2]; TI responders at W24
  3-year survival: 80%
[2]
  Week 24 TI response rate: 45%
  mean ferritin change at W24 from baseline: +13.8 ng/mL
[3]; compared to RUX
  transfusion dependence rate: decreased
  transfusion independence rate: increased
  transfusion rate: reduced
[3]; vs RUX, JAKi-naïve patients, 24 weeks
  reduction of spleen size (primary endpoint): noninferior to RUX
[3]; vs RUX
  total symptom score (TSS) response (secondary endpoint): non-inferiority was not demonstrated
[4]
  reducing spleen size (SSR), improving total symptom scores (TSS), improving transfusion independence rates: effective
  thrombocytopenia: without momelotinib administration causing thrombocytopenia
[5]; compared to BAT group
  total symptom score (TSS) response: greater
  transfusion dependence: lower
  transfusion independence: higher
  transfusions: fewer
[5]; vs BAT
  reduction of spleen size (primary endpoint): not superior to BAT
[6]; MMB symptom (TSS) responders vs TSS nonresponders
  overall survival hazard ratio (HR): 0.67
[6]; baseline ferritin <90 ng/mL
  Response Ratio (MMB/Control): 1.1429
[6]; baseline ferritin ≥90 ng/mL
  Response Ratio (MMB/Control): 3.7949
[6]; all patients randomized to MMB, W24 TI responders vs TI non-responders
  overall survival hazard ratio (HR): 0.57

## N#CC[C@H](C1CCCC1)n1cc(-c2ncnc3[nH]ccc23)cn1 [RUX, Ruxolitinib, reference compound]
[2]
  Week 24 TI response rate: 26%
  mean ferritin change at W24 from baseline: +226.1 ng/mL
